Molecular target: T1, Nuclear factor erythroid 2-related factor 2 (Homo sapiens, UniProt Q16236)
T1 sequence (Q16236 whole entry): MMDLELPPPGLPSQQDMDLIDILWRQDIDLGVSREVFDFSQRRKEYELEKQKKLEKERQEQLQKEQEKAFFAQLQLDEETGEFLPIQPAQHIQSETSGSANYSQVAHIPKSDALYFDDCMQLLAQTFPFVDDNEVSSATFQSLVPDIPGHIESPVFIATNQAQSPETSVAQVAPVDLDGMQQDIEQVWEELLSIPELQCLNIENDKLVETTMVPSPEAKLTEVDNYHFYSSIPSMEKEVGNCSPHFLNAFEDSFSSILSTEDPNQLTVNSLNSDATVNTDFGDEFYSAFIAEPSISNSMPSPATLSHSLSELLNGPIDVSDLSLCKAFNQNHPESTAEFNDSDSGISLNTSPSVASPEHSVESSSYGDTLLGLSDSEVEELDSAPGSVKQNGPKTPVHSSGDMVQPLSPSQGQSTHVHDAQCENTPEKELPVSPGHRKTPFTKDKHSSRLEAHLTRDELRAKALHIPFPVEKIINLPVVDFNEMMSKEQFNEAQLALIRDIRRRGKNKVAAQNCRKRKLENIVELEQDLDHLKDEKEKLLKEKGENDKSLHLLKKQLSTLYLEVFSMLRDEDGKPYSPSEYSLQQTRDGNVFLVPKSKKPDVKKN
Assay: Activation of Nrf2 (unknown origin) expressed in human HepG2 cells after 5 hrs by ARE-driven luciferase reporter gene assay

Row | Compound | EC50 [µM]
1 | Cc1ccc(/C=C/c2ccc(F)cc2)cc1 | 1.3
2 | COc1ccc(/C=C/c2ccc(OC)cc2OC)cc1 [(E)2'',4,4''-Trimethoxystilbene] | 4.6
3 | Fc1ccc(F)c(/C=C/c2ccccc2F)c1 | 5.9
4 | O=[N+]([O-])c1cccc(/C=C/c2ccccc2)c1 | 3
5 | COc1cccc(/C=C/c2ccc(F)cc2)c1 | 6
6 | Fc1ccccc1/C=C/c1c(F)cccc1F | 1.4
7 | COc1ccc(/C=C/c2cc(F)ccc2F)cc1 | 3.2
8 | Fc1cccc(/C=C/c2ccccc2F)c1 | > 15
9 | COc1ccc(/C=C/c2ccccc2Cl)cc1 [US8980954, 6j] | 3.1
10 | COc1cccc(/C=C/c2ccc(C)cc2)c1OC | 1.1
11 | Fc1ccc(/C=C/c2ccccc2F)c(F)c1 | 9.6
12 | Fc1ccc(/C=C/c2ccccc2F)cc1F | > 15
13 | COc1cccc(/C=C/c2cc(OC)ccc2OC)c1 | > 15
14 | COc1cccc(/C=C/c2ccccc2)c1OC | 4.7
15 | Fc1cccc(/C=C/c2ccc(F)c(F)c2)c1 | 5
16 | Fc1ccccc1/C=C/c1ccc(Cl)cc1 | 1.6
17 | COc1ccc(/C=C/c2ccc(F)c(F)c2)cc1 | > 15
18 | Fc1ccc(/C=C/c2ccccc2F)cc1 | 3.6
19 | Fc1cccc(/C=C/c2cccc(F)c2)c1 | 1
20 | COc1ccccc1/C=C/c1ccccc1F | 3.1
21 | Cc1ccc(/C=C/c2cccc(C(F)(F)F)c2)cc1 | 1.5
22 | COc1cccc(/C=C/c2cccc(F)c2)c1OC | 1.9
23 | COc1ccc(/C=C/c2cccc(O)c2)cc1 | > 15
24 | Cc1ccc(/C=C/c2ccc(F)c(F)c2)cc1 | 2.6
25 | COc1cccc(/C=C/c2ccccc2OC)c1 | 4.4
26 | COc1cccc(/C=C/c2ccc(F)cc2)c1OC | 2.9
27 | Fc1ccc(/C=C/c2cc(F)ccc2F)cc1 | 2.9
28 | COc1ccccc1/C=C/c1ccccc1 | 4.4
29 | Fc1cccc(/C=C/c2ccc(F)cc2F)c1 | 0.45

Other lines, results leading:

Row | EC50 [µM] | Compound
30 | 0.65 | Fc1ccc(/C=C/c2cccc(F)c2)cc1
31 | 2.3 | COc1cccc(/C=C/c2cccc(F)c2)c1
32 | 8.9 | COc1ccc(/C=C/c2cccc(F)c2)cc1 [US8980954, 6n]
33 | 6.9 | Fc1cccc(F)c1/C=C/c1ccccc1
34 | 2 | Cc1ccc(/C=C/c2ccc(F)cc2F)cc1
35 | 0.3 | Fc1cccc(/C=C/c2cc(F)ccc2F)c1
36 | 5.4 | Oc1ccc(/C=C/c2cc(O)cc(O)c2)cc1 [5-[(E)-2-(4-hydroxyphenyl)ethenyl]benzene-1,3-diol]
37 | 4.2 | COc1ccc(/C=C/c2ccc(F)cc2)cc1
38 | 3.3 | COc1ccc(/C=C/c2cccc([N+](=O)[O-])c2)cc1
39 | 2.2 | COc1cccc(/C=C/c2ccc(C(F)(F)F)cc2)c1OC
40 | 3.7 | COc1ccc(/C=C/c2ccc(O)c(OC)c2)cc1
41 | 0.9 | Fc1ccc(/C=C/c2ccc(F)cc2F)cc1
42 | 5.4 | COc1ccc(/C=C/c2ccccc2F)cc1 [US8980954, 6p]
43 | 3.1 | Fc1cccc(/C=C/c2ccccc2)c1
44 | 3.7 | Cc1ccc(/C=C/c2cccc([N+](=O)[O-])c2)cc1
45 | 2.6 | COc1ccc(/C=C/c2ccc(F)cc2)cc1OC
46 | 1.4 | Cc1ccc(/C=C/c2ccccc2F)cc1
47 | 11.4 | Oc1ccc(/C=C/c2ccccc2F)cc1
48 | 5.1 | COc1ccc(OC)c(/C=C/c2ccc(F)cc2)c1
49 | 0.8 | Cc1ccc(/C=C/c2cccc(F)c2)cc1
50 | 4.3 | Fc1ccccc1/C=C/c1ccccc1F
51 | 9.5 | COc1ccc(/C=C/c2cccc(F)c2)cc1OC [4-(3-fluorostyryl)-1,2-dimethoxybenzene]
52 | 0.7 | Fc1ccccc1/C=C/c1ccccc1
53 | > 15 | Fc1ccc(/C=C/c2ccc(F)c(F)c2)cc1
54 | 3.8 | COc1cccc(/C=C/c2ccccc2F)c1
55 | 0.8 | COc1ccc(OC)c(/C=C/c2ccc(OC)cc2OC)c1
56 | 12.4 | Fc1ccc(/C=C/c2ccccc2)cc1
57 | 2.7 | COc1cccc(/C=C/c2ccc(C(C)C)cc2)c1OC

Source: BindingDB's records for doi:10.1016/j.bmc.2017.01.005 (University of New Mexico, 2017)
